Patent US20250145632A1, “Pyrimidine Heterocyclic Compound, Preparation Method Thereof and use Thereof in Medicine” (INSILICO MEDICINE IP LIMITED, priority 2021, published 2025)

What was measured:
[1] = tested on: HCC70 human breast ductal cancer cells; experiment: HCC70 tumor cell proliferation inhibition (CellTiter-Glo); type: cell-based; settings: 3 d culture
Experimental: HCC70 was purchased from ATCC; article No.: CRL-2315; RPMI1640 was purchased from Gibco; article No.: 11875-093; Pancreatin (including EDTA) was purchased from Gibco; article No.: 25200-072; FBS was purchased from Gibco; article No.: 10099-141C; CellTiter-Glo was purchased from Promega; article No.: G7573; DMSO was purchased from VWR AMRESCO; article No.: 0231-500ML; Staurosporine was purchased from Selleck; article No.: S1421; a cell counter was purchased from CHEMOMETEC; model: NC-200; and a microplate reader was purchased from PerkinElmer; Model: Envison.
(§1) HCC70 was human breast ductal cancer cells cultured in an RPMI-1640 culture medium containing 10% FBS. Cells in logarithmic phase were taken, and the cells were subjected to digesting, collecting and counting with pancreatin-EDTA, 2000 HCC70 cells/well were inoculated in a 384-well cell plate, and were cultured in 5% CO2 overnight. A 1000× compound stock solution with 3.16 times of gradient concentration was prepared with DMSO, and was diluted 100 times to 10× compound stock solution with a culture medium, and 10× compound stock solution was added into each cell culture well on the next day after cell inoculation, wherein the final concentration was 1×, and the DMSO content was 0.1%. The cell group was treated with DMSO as an experimental control (control), and the cell group was treated with 5 μM of Staurosporine as a blank control (blank).

[2] = tested on: OVCAR-3 human ovarian adenocarcinoma cells; experiment: OVCAR-3 tumor cell proliferation inhibition (CellTiter-Glo); type: cell-based; settings: 3 d culture
Experimental: OVCAR-3 was purchased from ATCC; article No.: HTB-161; RPMI1640 was purchased from Gibco; article No.: 11875-093; Pancreatin (including EDTA) was purchased from Gibco; article No.: 25200-072; FBS was purchased from Gibco; Article No.: 10091-148; CellTiter-Glo was purchased from Promega; article No.: G7573; Bovine insulin was purchased from absin; article No.: abs9169; DMSO was purchased from VWR AMRESCO; article No.: 0231-500ML; Staurosporine was purchased from Selleck; article No.: S1421; a cell counter was purchased from CHEMOMETEC; model: NC-200; and a microplate reader was purchased from PerkinElmer; Model: Envison.
as §1, with “OVCAR-3” for “HCC70”, “ovarian adenocarcinoma” for “breast ductal cancer”, “20% FBS and 0.01 mg/mL of Bovine insulin.” for “10% FBS.”

Molecule | IC50 [1] [nM] | IC50 [2] [nM]
CP(C)(=O)c1c2ccc3c(c[nH]c13)-c1nc(ncc1C(F)(F)F)N[C@H]1CC[C@@H](C1)NCC[C@@H](F)CNC2=O (single isomer, unassigned) [Compound Z68-1] | 10.3 | 35.8
CP(C)(=O)c1c2ccc3c(c[nH]c13)-c1nc(ncc1C(F)(F)F)N[C@H]1CC[C@@H](C1)NCC[C@H](F)CNC2=O (single isomer, unassigned) [Compound Z68-2] | 3.18 | 8.84
CN1C[C@H](F)CCN[C@H]2CC[C@@H](C2)Nc2ncc(C(F)(F)F)c(n2)-c2c[nH]c3c(P(C)(C)=O)c(ccc23)C1=O (single isomer, unassigned) [Compound Z76] | 21.9 | 31.5
CP(C)(=O)c1c2ccc3c(c[nH]c13)-c1nc(ncc1C(F)(F)F)N[C@H]1CC[C@@H](C1)NCCCCCNC2=O [Compound Z6, (41 S,4^3S)-1^7-(dimethylphosphoryl)-2^5-(trifluoromethyl)-1^1H-3,5,11-triaza-1(3,6)-indola-2(4,2)-pyrimidina-4(1,3)-cyclopentanacyclododecaphan-12-one] | 222 | 
CP(C)(=O)c1c2ccc3c(c[nH]c13)-c1nc(ncc1C(F)(F)F)N[C@H]1CCC[C@@H](C1)NCCCCNC2=O [Compound Z9, (4^1S,4^3S)-1^7-(dimethylphosphoryl)-2^5-(trifluoromethyl)-1^1H-3,5,10-triaza-1(3,6)-indola-2(4,2)-pyrimidina-4(1,3)-cyclohexanacycloundecaphan-11-one] | 99.8 | 
CP(C)(=O)c1c2ccc3c(c[nH]c13)-c1nc(ncc1C(F)(F)F)N[C@H]1CC[C@@H](C1)NCCCNC2=O [Compound Z10, (4^1S, 4^3S)-1^7-(dimethylphosphoryl)-2^5-(trifluoromethyl)-1^1H-3,5,9-triaza-1(3,6)-indola-2(4,2)-pyrimidina-4(1,3)-cyclopentanacyclodecaphan-10-one] | 162 | 
O=C1NCCCCN[C@H]2CCC(C2)Nc2ncc(C(F)(F)F)c(n2)-c2c[nH]c3c(Cl)c1ccc23 [Compound Z11, (4^1S,43S)-1^7-chloro-2^5-(trifluoromethyl)-1^1H-3,5,10-triaza-1(3,6)-indola-2(4,2)-pyrimidina-4(1,3)-cyclopentanacycloundecaphan-11-one] | 186 | 
CN1CCCCNC(=O)c2ccc3c(c[nH]c3c2P(C)(C)=O)-c2nc(ncc2C(F)(F)F)N[C@H]2CC[C@H]1C2 [Compound Z16, (4^1S,43S)-1^7-(dimethylphosphoryl)-5-methyl-2^5-(trifluoromethyl)-1^1H-3,5,10-triaza-1(3,6)-indola-2(4,2)-pyrimidina-4(1,3)-cyclopentanacycloundecaphan-11-one] | 23 | 
CP(C)(=O)c1c2ccc3c(c[nH]c13)-c1nc(ncc1C(F)(F)F)N[C@H]1CC[C@@H](C1)NCCC(F)(F)CNC2=O [Compound Z19, (4^1S,43S)-17-(dimethylphosphoryl)-8,8-difluoro-2^5-(trifluoromethyl)-1^1H-3,5,10-triaza-1(3,6)-indola-2(4,2)-pyrimidina-4(1,3)-cyclopentanacycloundecaphan-11-one] | 15.4 | 
N#Cc1c2ccc3c(c[nH]c13)-c1nc(ncc1C(F)(F)F)N[C@H]1CC[C@@H](C1)NCCCCNC2=O [Compound Z23, (4^1S,4^3S)-11-oxo-2^5-(trifluoromethyl)-1^1H-3,5,10-triaza-1(3,6)-indola-2(4,2)-pyrimidina-4(1,3)-cyclopentanacycloundecaphane-17-carbonitrile] | 66.6 | 135
CN1CCCCN(C)[C@H]2CC[C@@H](C2)Nc2ncc(C(F)(F)F)c(n2)-c2c[nH]c3c(P(C)(C)=O)c(ccc23)C1=O [Compound Z27, (4^1S,4^3S)-1^7-(dimethylphosphoryl)-5,10-dimethyl-2^5-(trifluoromethyl)-1^1H-3,5,10-triaza-1(3,6)-indola-2(4,2)-pyrimidina-4(1,3)-cyclopentanacycloundecaphan-11-one] | 9.7 | 
CC1CCCNC(=O)c2ccc3c(c[nH]c3c2P(C)(C)=O)-c2nc(ncc2C(F)(F)F)N[C@H]2CC[C@@H](C2)N1 (stereo partly shown) [Compound Z58, (4^1S,4^3S)-1^7-(dimethylphosphoryl)-6-methyl-2^5-(trifluoromethyl)-1^1H-3,5,10-triaza-1(3,6)-indola-2(4,2)-pyrimidina-4(1,3)-cyclopentanacycloundecaphan-11-one] | 233 | 
CP(C)(=O)c1c2ccc3c(c[nH]c13)-c1nc(ncc1C(F)(F)F)N[C@H]1CC[C@@H](C1)NCCCCCCNC2=O [Compound Z59, (4^1S,4^3S)-1^7-(dimethylphosphoryl)-2^5-(trifluoromethyl)-1^1H-3,5,12-triaza-1(3,6)-indola-2(4,2)-pyrimidina-4(1,3)-cyclopentanacyclotridecaphan-13-one] | 422 | 
CN1CCOCCNC(=O)c2ccc3c(c[nH]c3c2P(C)(C)=O)-c2nc(ncc2C(F)(F)F)NC2CCC1C2 [Compound Z60, (4^1S,43S)-17-(dimethylphosphoryl)-5-methyl-2^5-(trifluoromethyl)-1^1H-8-oxa-3,5,11-triaza-1(3,6)-indola-2(4,2)-pyrimidina-4(1,3)-cyclopentanacyclododecaphan-12-one] | 89 | 
CN1CCCCNC2CCC(C2)Nc2ncc(C(F)(F)F)c(n2)-c2c[nH]c3c(P(C)(C)=O)c(ccc23)C1=O (stereo not shown) [Compound Z62, (41 S,4^3S)-1^7-(dimethylphosphoryl)-10-methyl-2^5-(trifluoromethyl)-1^1H-3,5,10-triaza-1(3,6)-indola-2(4,2)-pyrimidina-4(1,3)-cyclopentanacycloundecaphan-11-one] | 24.6 | 15.9
CN1CCOCCN(C)[C@H]2CC[C@@H](C2)Nc2ncc(C(F)(F)F)c(n2)-c2c[nH]c3c(P(C)(C)=O)c(ccc23)C1=O [Compound Z63, (4^1S,4^3S)-1^7-(dimethylphosphoryl)-5,11-dimethyl-2^5-(trifluoromethyl)-1^1H-8-oxa-3,5,11-triaza-1(3,6)-indola-2(4,2)-pyrimidina-4(1,3)-cyclopentanacyclododecaphan-12-one] | 134 | 195
CN1CCOCCN[C@H]2CC[C@@H](C2)Nc2ncc(C(F)(F)F)c(n2)-c2c[nH]c3c(P(C)(C)=O)c(ccc23)C1=O [Compound Z64, (4^1S,4^3S)-1^7-(dimethylphosphoryl)-11-methyl-2^5-(trifluoromethyl)-1^1H-8-oxa-3,5,11-triaza-1(3,6)-indola-2(4,2)-pyrimidina-4(1,3)-cyclopentanacyclododecaphan-12-one] | 42.8 | 98.6
CN1CCOCCNC2CCC(C2)Nc2ncc(C(F)(F)F)c(n2)-c2c[nH]c3c(S(C)(=O)=O)c(ccc23)C1=O (stereo not shown) [Compound Z72, (4^1S,4^3S)-11-methyl-1^7-(methylsulfonyl)-2^5-(trifluoromethyl)-1^1H-8-oxa-3,5,11-triaza-1(3,6)-indola-2(4,2)-pyrimidina-4(1,3)-cyclopentanacyclododecaphan-12-one] | 869 | 
CN1CCC(F)CN(C)C2CC[C@@H](C2)Nc2ncc(C(F)(F)F)c(n2)-c2c[nH]c3c(P(C)(C)=O)c(ccc23)C1=O (stereo partly shown) [Compound Z87, (4^1S)-1^7-(dimethylphosphoryl)-7-fluoro-5,10-dimethyl-2^5-(trifluoromethyl)-1^1H-3,5,10-triaza-1(3,6)-indola-2(4,2)-pyrimidina-4(1,3)-cyclopentanacycloundecaphan-11-one] | 243 | 
CN1CCC(F)CN(C)C2CC[C@@H](C2)Nc2ncc(C(F)(F)F)c(n2)-c2c[nH]c3c(P(C)(C)=O)c(ccc23)C1=O (stereo partly shown) [Compound Z88, (4^1S)-1^7-(dimethylphosphoryl)-7-fluoro-5,10-dimethyl-2^5-(trifluoromethyl)-1^1H-3,5,10-triaza-1(3,6)-indola-2(4,2)-pyrimidina-4(1,3)-cyclopentanacycloundecaphan-11-one] | 241 | 
(4^3S)-1^7-(dimethylphosphoryl)-2^5-(trifluoromethyl)-1^1H-3,11-diaza-1(3,6)-indola-2(4,2)-pyrimidina-4(3,1)-piperidinacyclododecaphan-12-one [Compound Z61] | 390 | 
